Values of other authors as cited in US10986851B2, “Control of pathogenic bacteria in foods” (priority 2018, dated 2021).

Legend:
Salmonella [1] = conditions: postchill decontamination tank, ground poultry parts; 0.07 and 0.1% PAA evaluated
Salmonella [2] = conditions: suspension in 0.1% peptone water
Salmonella [3] = conditions: ground chicken containing 9.8% fat, refrigerated storage, 200 ppm

Structure (SMILES)	reduction of Salmonella (Salmonella [1])	inhibitory effect against Salmonella (Salmonella [2])	effect on growth of Salmonella (Salmonella [3])
CC(=O)OO [PAA, peracetic acid]	effective for the reduction of Salmonella		
CCCCCCCCCCCC(=O)N[C@@H](CCCN=C(N)N)C(=O)OCC [LAE, lauric arginate]		strong inhibitory (P<0.05) effect	no inhibitory (P>0.05) effect
